Assay results published in publication PMC3662613 (Chemmedchem, 2013).
Values after ≈ are worked out from the molar mass of the structure shown. Values joined by “and” are separate entries in the source; they are usually repeats but may differ in a detail not shown here. Equal values may be shown once. Read-outs that look alike come from different tables or passages of the source.

Tests used:
p97 ATPase = p97 ATPase (Homo sapiens, UniProt P55072); assay: p97 ATPase assay; format: biochemical; conditions: for IC50: IC50 ATPase, triplicate, mean ±SD
[1] = test system: ODD-Luc (p97-independent proteasome substrate); assay: ODD-Luc reporter degradation assay, dual reporter HeLa cell line; format: cell-based; conditions: Homo sapiens, read-out: IC50 ODD-Luc
HCT15 = assay: Cytotoxicity / antiproliferative activity; format: cell-based; conditions: Homo sapiens
SW403 = assay: Cytotoxicity / antiproliferative activity; format: cell-based; conditions: Homo sapiens
NCI 60 cancer cell lines = assay: NCI 60-cell-line screen; format: cell-based; conditions: 48 h; for Mean GP: mean of 60 NCI cell lines ±SD
Aqueous solubility = format: physicochemical; conditions: aqueous buffer
PAMPA = format: in vitro ADME; conditions: acceptor pH 7.4; for Papp: PAMPA; for PAMPA Pe: in the presence of 20% CH3CN
Plasma protein binding [2] = format: in vitro ADME; conditions: human
Plasma protein binding [3] = format: in vitro ADME; conditions: mouse
Plasma stability [4] = format: in vitro ADME; conditions: human
Plasma stability [5] = format: in vitro ADME; conditions: mouse
[6] = Hepatic microsome stability; format: in vitro ADME; conditions: human, liver microsomes
[7] = Hepatic microsome stability; format: in vitro ADME; conditions: mouse, liver microsomes
Hepatic toxicity = format: cell-based; conditions: human, Fa2N-4 immortalized human hepatocytes
[8] = test system: poly(ADP-ribose) polymerase (PARP); assay: PARP cleavage immunoblot, SW403 cells; format: cell-based; conditions: 2 h
[9] = test system: HMEC, PHMLEB, PHMLER cells; assay: Cellular viability; format: cell-based, human; conditions: 24 h, CellTiter-Glo
caspases 3 and 7 = assay: Caspase 3 and 7 activity in colon cancer cell lines; format: cell-based; conditions: multiple colon cancer cell lines; dose- and time-dependent
5-HT5a = 5-HT5a (Homo sapiens, UniProt P47898); assay: CNS panel binding; conditions: 5HT5a receptor
JAK1 domain1 = JAK1 domain1 (Homo sapiens, UniProt P23458); assay: KiNativ profiling; format: binding; conditions: 20 μM, Other
PIP5K3 = PIP5K3 (Homo sapiens, UniProt Q9Y2I7); assay: KiNativ profiling; format: binding; conditions: 20 μM, ATP
LC3-II = assay: Autophagy reporter LC3-II immunoblot; conditions: for accumulation of lipidated LC3-II: HEK293, 5 h
ubiquitin conjugates = assay: Ubiquitin conjugate accumulation immunoblot, SW403 cells; conditions: 5–10 μM; nuclear plus membrane and cytosolic compartments
∼170 kinases = assay: KiNativ kinase profiling, whole panel, PC3 cell lysate; format: binding, Homo sapiens; conditions: 20 μM
[10] = HCT-15, 24 h, read-out: Cytotoxicity GI50 HCT15 24 h
[11] = HCT-15, 72 h, read-out: Cytotoxicity GI50 HCT15 72 h
[12] = SW-403, 24 h, read-out: Cytotoxicity GI50 SW403 24 h
[13] = SW-403, 72 h, read-out: Cytotoxicity GI50 SW403 72 h

Sequence of p97 ATPase (P55072 whole entry): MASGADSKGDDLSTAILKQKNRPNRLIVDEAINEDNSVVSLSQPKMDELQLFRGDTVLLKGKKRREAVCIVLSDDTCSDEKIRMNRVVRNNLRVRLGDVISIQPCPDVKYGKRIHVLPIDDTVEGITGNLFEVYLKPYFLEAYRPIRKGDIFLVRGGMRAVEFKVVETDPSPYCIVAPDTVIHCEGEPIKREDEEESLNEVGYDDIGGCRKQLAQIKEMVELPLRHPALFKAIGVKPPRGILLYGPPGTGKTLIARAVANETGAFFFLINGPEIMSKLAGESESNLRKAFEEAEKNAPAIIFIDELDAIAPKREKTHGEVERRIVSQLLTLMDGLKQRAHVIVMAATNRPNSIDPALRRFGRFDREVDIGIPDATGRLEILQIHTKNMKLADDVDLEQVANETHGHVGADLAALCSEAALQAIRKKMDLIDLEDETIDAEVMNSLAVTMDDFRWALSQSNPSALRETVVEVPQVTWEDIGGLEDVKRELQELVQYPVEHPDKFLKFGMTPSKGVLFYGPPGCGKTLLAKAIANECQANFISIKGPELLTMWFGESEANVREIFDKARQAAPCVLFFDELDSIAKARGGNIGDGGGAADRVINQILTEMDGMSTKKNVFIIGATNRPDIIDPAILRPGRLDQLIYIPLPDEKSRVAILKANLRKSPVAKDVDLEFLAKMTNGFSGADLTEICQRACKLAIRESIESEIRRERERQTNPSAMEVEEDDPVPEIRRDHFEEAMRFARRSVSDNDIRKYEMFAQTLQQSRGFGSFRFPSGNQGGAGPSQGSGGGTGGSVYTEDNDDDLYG
Sequence of JAK1 domain1 (P23458 whole entry, the tested form may be a part): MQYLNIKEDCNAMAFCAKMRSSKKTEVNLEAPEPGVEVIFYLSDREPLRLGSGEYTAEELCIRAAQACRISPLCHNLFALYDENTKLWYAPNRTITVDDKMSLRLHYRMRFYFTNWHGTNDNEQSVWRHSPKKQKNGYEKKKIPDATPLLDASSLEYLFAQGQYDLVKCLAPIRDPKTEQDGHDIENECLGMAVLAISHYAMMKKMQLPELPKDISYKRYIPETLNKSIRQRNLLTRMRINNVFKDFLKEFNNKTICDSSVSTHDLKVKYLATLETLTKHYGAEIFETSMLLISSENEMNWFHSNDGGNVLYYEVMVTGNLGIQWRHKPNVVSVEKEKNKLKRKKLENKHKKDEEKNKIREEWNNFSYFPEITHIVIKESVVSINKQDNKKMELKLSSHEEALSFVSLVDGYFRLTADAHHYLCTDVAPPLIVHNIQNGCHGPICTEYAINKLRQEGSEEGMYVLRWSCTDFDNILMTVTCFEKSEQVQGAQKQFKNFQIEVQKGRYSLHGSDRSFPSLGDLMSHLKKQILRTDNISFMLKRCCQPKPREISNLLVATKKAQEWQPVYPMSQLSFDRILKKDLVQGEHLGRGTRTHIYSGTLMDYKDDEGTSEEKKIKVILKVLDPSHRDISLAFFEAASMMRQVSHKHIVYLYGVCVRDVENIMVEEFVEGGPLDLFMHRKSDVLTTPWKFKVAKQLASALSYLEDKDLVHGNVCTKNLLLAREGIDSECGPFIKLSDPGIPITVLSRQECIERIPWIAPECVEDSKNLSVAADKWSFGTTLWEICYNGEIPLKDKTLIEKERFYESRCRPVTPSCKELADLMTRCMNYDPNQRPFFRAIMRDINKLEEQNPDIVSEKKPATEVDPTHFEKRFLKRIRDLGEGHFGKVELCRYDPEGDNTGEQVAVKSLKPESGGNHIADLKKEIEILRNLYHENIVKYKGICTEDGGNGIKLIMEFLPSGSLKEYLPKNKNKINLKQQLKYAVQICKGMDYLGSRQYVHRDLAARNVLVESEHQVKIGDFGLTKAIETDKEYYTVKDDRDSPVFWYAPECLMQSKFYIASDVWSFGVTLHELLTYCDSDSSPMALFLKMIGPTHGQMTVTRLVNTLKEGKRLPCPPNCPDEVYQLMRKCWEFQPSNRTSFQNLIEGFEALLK
Sequence of PIP5K3 (Q9Y2I7 whole entry): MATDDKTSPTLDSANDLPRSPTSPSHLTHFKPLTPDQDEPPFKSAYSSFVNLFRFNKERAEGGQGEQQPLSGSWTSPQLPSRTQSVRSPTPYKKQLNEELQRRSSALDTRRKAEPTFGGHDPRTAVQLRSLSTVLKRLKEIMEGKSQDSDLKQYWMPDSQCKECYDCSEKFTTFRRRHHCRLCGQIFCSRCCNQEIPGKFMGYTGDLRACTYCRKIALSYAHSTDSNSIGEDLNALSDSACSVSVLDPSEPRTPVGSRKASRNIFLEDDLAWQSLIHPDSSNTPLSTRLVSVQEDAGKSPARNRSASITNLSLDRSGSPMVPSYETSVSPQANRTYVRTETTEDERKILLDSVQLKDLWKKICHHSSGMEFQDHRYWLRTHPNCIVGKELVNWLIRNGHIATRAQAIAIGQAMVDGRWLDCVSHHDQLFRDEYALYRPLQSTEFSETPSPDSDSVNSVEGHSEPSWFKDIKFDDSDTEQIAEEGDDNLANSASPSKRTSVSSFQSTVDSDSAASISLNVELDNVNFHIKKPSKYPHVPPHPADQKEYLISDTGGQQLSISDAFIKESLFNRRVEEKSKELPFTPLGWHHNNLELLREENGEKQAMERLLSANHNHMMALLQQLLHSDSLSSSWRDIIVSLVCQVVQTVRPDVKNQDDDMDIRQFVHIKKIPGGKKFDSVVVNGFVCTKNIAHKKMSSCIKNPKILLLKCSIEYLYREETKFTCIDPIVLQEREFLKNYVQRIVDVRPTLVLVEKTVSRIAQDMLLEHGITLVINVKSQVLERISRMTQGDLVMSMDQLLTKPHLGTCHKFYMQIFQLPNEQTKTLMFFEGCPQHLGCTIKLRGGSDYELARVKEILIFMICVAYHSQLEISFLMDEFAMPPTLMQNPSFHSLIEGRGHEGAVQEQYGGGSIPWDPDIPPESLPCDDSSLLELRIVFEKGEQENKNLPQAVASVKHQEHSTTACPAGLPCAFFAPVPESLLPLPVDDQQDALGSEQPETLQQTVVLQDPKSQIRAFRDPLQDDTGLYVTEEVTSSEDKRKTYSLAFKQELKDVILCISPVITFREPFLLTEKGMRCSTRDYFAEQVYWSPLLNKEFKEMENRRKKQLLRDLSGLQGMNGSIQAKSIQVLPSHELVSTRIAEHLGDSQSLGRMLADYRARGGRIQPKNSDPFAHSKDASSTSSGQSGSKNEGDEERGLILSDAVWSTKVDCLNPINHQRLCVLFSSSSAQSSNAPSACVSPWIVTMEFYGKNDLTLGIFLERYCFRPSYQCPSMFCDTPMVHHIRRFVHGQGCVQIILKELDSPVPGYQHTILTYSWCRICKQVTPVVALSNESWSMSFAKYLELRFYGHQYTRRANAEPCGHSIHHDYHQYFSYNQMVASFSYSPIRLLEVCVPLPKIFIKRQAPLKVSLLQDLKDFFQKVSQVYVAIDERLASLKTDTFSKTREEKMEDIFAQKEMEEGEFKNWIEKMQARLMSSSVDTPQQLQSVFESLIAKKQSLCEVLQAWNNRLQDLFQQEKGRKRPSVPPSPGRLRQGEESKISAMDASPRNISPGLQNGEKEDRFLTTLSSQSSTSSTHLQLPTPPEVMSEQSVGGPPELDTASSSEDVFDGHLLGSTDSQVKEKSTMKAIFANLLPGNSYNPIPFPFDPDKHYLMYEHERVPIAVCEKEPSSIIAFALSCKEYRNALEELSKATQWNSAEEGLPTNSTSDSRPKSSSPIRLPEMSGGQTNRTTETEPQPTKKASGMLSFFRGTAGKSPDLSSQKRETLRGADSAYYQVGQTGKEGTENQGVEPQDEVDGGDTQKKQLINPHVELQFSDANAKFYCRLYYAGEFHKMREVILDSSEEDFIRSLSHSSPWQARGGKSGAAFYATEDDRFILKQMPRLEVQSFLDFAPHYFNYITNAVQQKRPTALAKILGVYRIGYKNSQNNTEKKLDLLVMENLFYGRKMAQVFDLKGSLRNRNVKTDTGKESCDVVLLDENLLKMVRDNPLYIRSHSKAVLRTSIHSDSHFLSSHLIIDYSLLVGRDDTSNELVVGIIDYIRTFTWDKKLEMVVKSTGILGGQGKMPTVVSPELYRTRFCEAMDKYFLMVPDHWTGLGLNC
Sequence of 5-HT5a (P47898 whole entry, species assumed, the tested form may be a part): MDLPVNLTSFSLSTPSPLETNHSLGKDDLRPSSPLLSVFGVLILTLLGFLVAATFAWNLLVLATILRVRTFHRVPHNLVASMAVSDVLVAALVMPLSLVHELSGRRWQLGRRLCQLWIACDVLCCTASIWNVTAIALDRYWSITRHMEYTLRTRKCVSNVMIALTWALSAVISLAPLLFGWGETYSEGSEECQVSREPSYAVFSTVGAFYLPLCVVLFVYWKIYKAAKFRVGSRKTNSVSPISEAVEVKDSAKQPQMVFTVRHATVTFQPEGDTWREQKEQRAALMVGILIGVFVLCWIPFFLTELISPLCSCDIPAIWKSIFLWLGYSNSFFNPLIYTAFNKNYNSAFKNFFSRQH

| SMILES | Ki (p97 ATPase) [nM] | mechanism of p97 inhibition with respect to ATP (p97 ATPase) | IC50 (p97 ATPase) | IC50 [1] [nM] | GI50 (HCT15; [10]) [nM] | GI50 (HCT15; [11]) [nM] | GI50 (SW403; [12]) [nM] | GI50 (SW403; [13]) [nM] | Mean GP (NCI 60 cancer cell lines) [%] | solubility (Aqueous solubility; pH 5, aqueous buffer) [µg/mL] | solubility (Aqueous solubility; pH 6.2, aqueous buffer) [µg/mL] | solubility (Aqueous solubility; pH 7.4, aqueous buffer) [µg/mL] | fraction unbound at 1 μM (Plasma protein binding [2]) | fraction unbound at 10 μM (Plasma protein binding [2]) | fraction unbound at 1 μM (Plasma protein binding [3]) | fraction unbound at 10 μM (Plasma protein binding [3]) | remaining at 3 h (Plasma stability [4]) [%] | remaining at 3 h (Plasma stability [5]) [%] | remaining at 1 h [6] [%] | remaining at 1 h [7] [%] | also measured |
| --- | --- | --- | --- | --- | --- | --- | --- | --- | --- | --- | --- | --- | --- | --- | --- | --- | --- | --- | --- | --- | --- |
| COc1cccc2c(NCc3ccccc3)nc(-n3c(N)nc4ccccc43)nc12 [ML240, 2-(2-Amino-1H-benzo[d]imidazol-1-yl)-N-benzyl-8-methoxyquinazolin-4-amine] | 220 | competitively | ~100 nM and 100 nM | 28000 ± 7000 | 760 ± 140 | 540 ± 190 | 500 ± 70 | 500 ± 100 | −84.5±15.5 | 0.35 (≈ 0.883 µM) | 0.33 (≈ 0.832 µM) | 0.27 (≈ 0.681 µM) | 0.0047 | 0.0029 | 0.0027 | 0.0037 | 100 | 100 | 54.3 | 0.63 | Highest GP (NCI 60 cancer cell lines; least inhibited individual cancer cell line): −43.8 (HS 578T) %; Lowest GP (NCI 60 cancer cell lines; most inhibited individual cancer cell line): −100.0 (OVCAR-4) %; Papp (PAMPA; PAMPA Pe, donor pH 5.0): 357 ×10⁻⁶ cm/s; Papp (PAMPA; PAMPA Pe, donor pH 6.2): 628 ×10⁻⁶ cm/s; Papp (PAMPA; pH 7.4, PAMPA Pe, donor pH 7.4): < 60.3 ×10⁻⁶ cm/s; CC50 (Hepatic toxicity): 8500 nM; cleavage of PARP [8]: induced efficient cleavage; potency on normal vs immortalized and tumorigenic cell lines [9]: slightly greater potency toward the immortalized and transformed cells; induction of caspase activity (caspases 3 and 7): induced caspase activity; Ki (5-HT5a): 2500 nM; % Inhibition (JAK1 domain1): > 50%; % Inhibition (PIP5K3): > 50%; time of LC3-II accumulation after addition of drug (LC3-II; HCT116, 10 μM, as early as): 10 min; accumulation of lipidated LC3-II (LC3-II): induced accumulation; accumulation of ubiquitin conjugates (ubiquitin conjugates): caused accumulation of ubiquitin conjugates |
| c1ccc(CNc2nc(N3CCOc4ccccc43)nc3c2CCCC3)cc1 [ML241, 2-(2H-Benzo[b][1,4]oxazin-4(3H)-yl)-N-benzyl-5,6,7,8-tetrahydroquinazolin-4-amine] | 350 | competitively | ~100 nM and 100 nM | 46000 ± 8000 | 53000 ± 5000 | 13000 ± 4000 | 33000 ± 7000 | 12000 ± 3000 | 92.8±22.8 | 28 (≈ 75.2 µM) | 0.13 (≈ 0.349 µM) | 0.2 (≈ 0.537 µM) | 0.0003 | 0.0005 | 0.0005 | 0.0009 | 100 | 100 | 19 | 2.57 | PAMPA Pe (PAMPA; donor pH 5.0): 1164 ×10⁻⁶ cm/s; PAMPA Pe (PAMPA; donor pH 6.2): 2504 ×10⁻⁶ cm/s; PAMPA Pe (PAMPA; donor pH 7.4): 2278 ×10⁻⁶ cm/s; CC50 (Hepatic toxicity): > 50000 nM; inhibition of labeling across the panel (∼170 kinases): did not appreciably inhibit labeling; accumulation of lipidated LC3-II (LC3-II): lack of effect; accumulation of ubiquitin conjugates (ubiquitin conjugates): caused accumulation of ubiquitin conjugates |
